Experimental data from patent publication US11951094B2, “TLR2 modulator compounds, pharmaceutical compositions and uses thereof” (Axial Therapeutics, Inc., priority 2020, dated 2024).

Target: TLR2 (Homo sapiens, UniProt O60603)
Test: TLR2 agonist screening assay, HEK-Blue TLR2 reporter cell line (NF-kB-driven SEAP, absorbance at 600 nm)
Type: cell-based
Set-up: host or cells: HEK-293 (HEK-Blue TLR2 reporter cell line)
Details: HEK-Blue TLR2 reporter cells, agonist mode
Excerpt: TLRs are a class of cell-surface receptors expressed on many different cell types that recognize conserved structural motifs present on pathogen-derived molecules. TLR2 recognizes bacteria-derived lipopeptides. […] Provided herein is an assay to identify and characterize the binding affinities of novel TLR2 agonists.
The in vitro TLR2 assay consists of a cell line that responds to TLR2 engagement by producing a factor that elicits a color change in the culture media and can be readily measured by various colorimetric detection methods. This assay enables the identification of existing and novel compounds that engage TLR2 and, by virtue of compound dilution, to approximate the binding affinity of these compounds for eliciting a TLR2 signal.
The TLR2 screening assay was developed from the HEK-Blue TLR2 reporter cell line that is commercially available from Invivogen (San Diego, CA). The reporter cell line consists of HEK-293 embryonic kidney cells that have been engineered to express TLR2 and with an NF-kB promoter driving expression of Secreted Alkaline Phosphatase (SEAP). Upon engagement of TLR2, downstream signaling results in activation of NF-kB pathway activation and secretion of SEAR In the presence of the detection reagent in the tissue culture media, SEAP mediates a color change from clear to indigo that is readily assessed by measuring absorbance at 600 nm.
HEK-Blue TLR2 reporter cells are cultured according to manufacturer's specifications until a confluence of 70-90%, at which point the cells are trypsinized, counted, and plated into 96-well plates at approximately 40,000 cells per well. Cells are cultured overnight and the TLR2 assay is performed 16-24 hours post-plating into 96 well plates.
Compounds are diluted from stocks dissolved in DMSO and a 1% DMSO final concentration is maintained in all testing wells.
The assay consists of removing the cell culture media after cells have been cultured overnight and replacing the media with HEK-Blue Detection media with TLR2 agonists at indicated dilution schemes. The Detection media contains a chemical substrate that turns from clear to indigo when acted upon by SEAP. The HEK-Blue cells are then cultured overnight in Detection media with diluted compounds. After overnight culture with agonists, each well of the plate is assayed in a plate reader at 600 nanometer absorbance.
• (1) HEK-Blue TLR2 cells are diluted in complete DME culture medium and plated into 96-well plates at 40,000 cells per well and cultured overnight. • (2) After 16-24 hours in culture, the media is removed and replaced with 200 microliters per well of HEK-Blue Detection media. • (3) TLR2 agonists are diluted 100-fold from DMSO stocks into each well, yielding a final DMSO concentration of 1% in all wells. • (3) Treated cells are cultured overnight and the following day are assayed in plate reader for Absorbance at 600 nanometer.
Following assay measurements utilizing either HEK-Blue detection or cytokine release, all data is analyzed with the GraphPad Prism8 statistical package to determine EC50, binding and activity metrics for the TLR2 modulators.
Data is generated using protocol described in Example 44.

Chain of TLR2 (O60603 21-784): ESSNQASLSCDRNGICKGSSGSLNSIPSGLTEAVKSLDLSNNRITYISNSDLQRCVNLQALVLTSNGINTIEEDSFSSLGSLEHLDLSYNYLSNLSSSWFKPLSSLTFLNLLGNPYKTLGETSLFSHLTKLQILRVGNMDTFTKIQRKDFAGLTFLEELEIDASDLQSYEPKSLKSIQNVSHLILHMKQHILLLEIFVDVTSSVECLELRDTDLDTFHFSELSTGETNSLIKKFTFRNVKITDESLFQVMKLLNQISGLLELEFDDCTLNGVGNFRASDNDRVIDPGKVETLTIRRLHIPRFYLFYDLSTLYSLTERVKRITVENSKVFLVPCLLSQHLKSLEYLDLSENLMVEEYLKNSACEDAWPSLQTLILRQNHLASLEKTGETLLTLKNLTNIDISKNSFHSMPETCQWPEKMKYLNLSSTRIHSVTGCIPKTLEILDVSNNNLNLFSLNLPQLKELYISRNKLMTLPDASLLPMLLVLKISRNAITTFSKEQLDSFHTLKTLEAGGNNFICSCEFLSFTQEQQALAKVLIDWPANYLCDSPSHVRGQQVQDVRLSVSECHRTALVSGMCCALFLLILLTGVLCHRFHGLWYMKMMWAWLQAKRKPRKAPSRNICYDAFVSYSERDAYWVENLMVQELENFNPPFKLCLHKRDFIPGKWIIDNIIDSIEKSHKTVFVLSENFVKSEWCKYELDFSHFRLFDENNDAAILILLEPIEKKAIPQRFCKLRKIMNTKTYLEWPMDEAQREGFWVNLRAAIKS

Compound | EC50 (average of all runs (Table 3)) [nM] | EC50 (average of all runs (Table 4)) [nM]
CCCCCCCC(=O)N1CCN(C(=O)c2ccc(C(=O)N3C[C@@H](C(=O)N[C@H]4C[C@@H]4c4ccccc4)[C@H](C(=O)N[C@H]4C[C@@H]4c4ccccc4)C3)cc2)CC1C(=O)NCCCC (mixture of isomers) [Compound 046, (3S,4S)-1-(4-(3-(butylcarbamoyl)-4-octanoylpiperazine-1-carbonyl)benzoyl)-N3,N4-bis((1S,2R)-2-phenylcyclopropyl)pyrrolidine-3,4-dicarboxamide] | 51 to 350 | 
CCCCCCNC(=O)C1CN(C(=O)c2ccc(C(=O)N3C[C@@H](C(=O)N[C@H]4C[C@@H]4c4ccccc4)[C@H](C(=O)N[C@H]4C[C@@H]4c4ccccc4)C3)cc2)CCN1C(=O)CCCCCC (mixture of isomers) [Compound 056, (3S,4S)-1-(4-(4-heptanoyl-3-(hexylcarbamoyl)piperazine-1-carbonyl)benzoyl)-N3,N4-bis((1S,2R)-2-phenylcyclopropyl)pyrrolidine-3,4-dicarboxamide] | 0.1 to 50 | 
O=C(N[C@H]1C[C@@H]1c1ccccc1)[C@@H]1CN(C(=O)c2cccc(C(=O)N3C[C@@H](C(=O)N[C@H]4C[C@@H]4c4ccccc4)[C@H](C(=O)N[C@H]4C[C@@H]4c4ccccc4)C3)c2)C[C@H]1C(=O)N[C@H]1C[C@@H]1c1ccccc1 (racemic) [Compound 001] | > 1000 | 
CCCCCCNC(=O)[C@@H]1CN(C(=O)c2ccc(C(=O)N3C[C@@H](C(=O)N[C@H]4C[C@@H]4c4ccccc4)[C@H](C(=O)N[C@H]4C[C@@H]4c4ccccc4)C3)cc2)C[C@@H]1O (racemic) [Compound 034, (3S,4S)-1-(4-((3R*,4R*)-3-(hexylcarbamoyl)-4-hydroxypyrrolidine-1-carbonyl)benzoyl)-N3,N4-bis((1S,2R)-2-phenylcyclopropyl)pyrrolidine-3,4-dicarboxamide] | 351 to 1000 | 
CCCCCCCCCCCCCCNC(=O)[C@@H]1CN(C(=O)c2ccc(C(=O)N3C[C@@H](C(=O)N[C@H]4C[C@@H]4c4ccccc4)[C@H](C(=O)N[C@H]4C[C@@H]4c4ccccc4)C3)cc2)C[C@H]1O (racemic) [Compound 045, (3S,4S)-1-(4-((3S*,4R*)-3-hydroxy-4-(tetradecylcarbamoyl)pyrrolidine-1-carbonyl)benzoyl)-N3,N4-bis((1S,2R)-2-phenylcyclopropyl)pyrrolidine-3,4-dicarboxamide] | 351 to 1000 | 
CCCCCCNC(=O)[C@@H]1CN(C(=O)c2ccc(C(=O)N3C[C@@H](C(=O)N[C@H]4C[C@@H]4c4ccccc4)[C@H](C(=O)N[C@H]4C[C@@H]4c4ccccc4)C3)cc2)C[C@H]1O (relative stereo) [Compound 033, (3S,4S)-1-(4-((3R*,4S*)-3-(hexylcarbamoyl)-4-hydroxypyrrolidine-1-carbonyl)benzoyl)-N3,N4-bis((1S,2R)-2-phenylcyclopropyl)pyrrolidine-3,4-dicarboxamide] | 51 to 350 | 
CCCCCCNC(=O)[C@@H]1C[C@H](C(=O)NCCCCCC)CN(C(=O)c2ccc(C(=O)N3C[C@@H](C(=O)N[C@H]4C[C@@H]4c4ccccc4)[C@H](C(=O)N[C@H]4C[C@@H]4c4ccccc4)C3)cc2)C1 (relative stereo) [Compound 038, (3R*,5S*)-1-(4-((3S,4S)-3,4-bis(((1S,2R)-2-phenylcyclopropyl)carbamoyl)pyrrolidine-1-carbonyl)benzoyl)-N3,N5-dihexylpiperidine-3,5-dicarboxamide] | 351 to 1000 | 
CCCCCCCNC(=O)[C@@H]1CN(C(=O)c2ccc(C(=O)N3C[C@@H](C(=O)N[C@H]4C[C@@H]4c4ccccc4)[C@H](C(=O)N[C@H]4C[C@@H]4c4ccccc4)C3)cc2)C[C@H]1OCCCCCCC (relative stereo) [Compound 062, (3S,4S)-1-(4-((3R*,4S*)-3-(heptylcarbamoyl)-4-(heptyloxy)pyrrolidine-1-carbonyl)benzoyl)-N3,N4-bis((1S,2R)-2-phenylcyclopropyl)pyrrolidine-3,4-dicarboxamide] | 51 to 350 | 
CCCCCCCCCCCCCCNC(=O)[C@@H]1CN(C(=O)c2ccc(C(=O)N3C[C@@H](C(=O)N[C@H]4C[C@@H]4c4ccccc4)[C@H](C(=O)N[C@H]4C[C@@H]4c4ccccc4)C3)cc2)C[C@@H]1OC (single isomer, unassigned) [Compound 061, (3S,4S)-1-(4-((3R*,4R*)-3-methoxy-4-(tetradecylcarbamoyl)pyrrolidine-1-carbonyl)benzoyl)-N3,N4-bis((1S,2R)-2-phenylcyclopropyl)pyrrolidine-3,4-dicarboxamide] | 0.1 to 50 | 

Continued, values first:

EC50 (average of all runs (Table 3)) [nM] | EC50 (average of all runs (Table 4)) [nM] | Compound
 | 0.1 to 50 | CCCCCCCC[C@@H]1CN(C(=O)c2ccc(C(=O)N3C[C@@H](C(=O)N[C@H]4C[C@@H]4c4ccccc4)[C@H](C(=O)N[C@H]4C[C@@H]4c4ccccc4)C3)cc2)C[C@H]1C(=O)NCCCCCC (racemic) [Compound 085, (3S,4S)-1-(4-((3S*,4S*)-3-(hexylcarbamoyl)-4-octylpyrrolidine-1-carbonyl)benzoyl)-N3,N4-bis((1S,2R)-2-phenylcyclopropyl)pyrrolidine-3,4-dicarboxamide]
 | > 1000 | CCCCCCCC[C@H]1CN(C(=O)c2ccc(C(=O)N3C[C@@H](C(=O)N[C@H]4C[C@@H]4c4ccccc4)[C@H](C(=O)N[C@H]4C[C@@H]4c4ccccc4)C3)cc2)C[C@H]1C(=O)NCCCCCC (relative stereo) [Compound 086, (3S,4S)-1-(4-((3S*,4R*)-3-(hexylcarbamoyl)-4-octylpyrrolidine-1-carbonyl)benzoyl)-N3,N4-bis((1S,2R)-2-phenylcyclopropyl)pyrrolidine-3,4-dicarboxamide]
 | 0.1 to 50 | O=C(N[C@H]1C[C@@H]1c1ccccc1)[C@@H]1CN(C(=O)c2ccc(C(=O)N3C[C@@H](C(=O)N[C@H]4C[C@@H]4c4ccccc4)[C@H](C(=O)N[C@H]4C[C@@H]4c4cccnc4)C3)cc2)C[C@H]1C(=O)N[C@H]1C[C@@H]1c1ccccc1 (relative stereo) [Compound 096, (3S,4S)—N3-((1S)-2-phenylcyclopropyl)-N4-(2-phenylcyclopropyl)-1-(4-((3S,4S)-3-(((1S,2R)-2-phenylcyclopropyl)carbamoyl)-4-(((1S*,2R*)-2-(pyridin-3-yl)cyclopropyl)carbamoyl)pyrrolidine-1-carbonyl)benzoyl)pyrrolidine-3,4-dicarboxamide]
 | 51 to 350 | CCCCCCCO[C@H]1CN(C(=O)c2ccc(C(=O)N3C[C@@H](C(=O)N[C@H]4C[C@@H]4c4ccccc4)[C@H](C(=O)N[C@H]4C[C@@H]4c4ccccc4)C3)cc2)C[C@@H]1C(=O)NCCCCCC (relative stereo) [Compound 113, (3S,4S)-1-(4-((3R*,4S*)-3-(heptyloxy)-4-(hexylcarbamoyl)pyrrolidine-1-carbonyl)benzoyl)-N3,N4-bis((1S,2R)-2-phenylcyclopropyl)pyrrolidine-3,4-dicarboxamide]
 | 351 to 1000 | CCCCCCCO[C@@H]1CN(C(=O)c2ccc(C(=O)N3C[C@@H](C(=O)N[C@H]4C[C@@H]4c4ccccc4)[C@H](C(=O)N[C@H]4C[C@@H]4c4ccccc4)C3)cc2)C[C@@H]1C(=O)NCCCCCC (relative stereo) [Compound 116, (3S,4S)-1-(4-((3S*,4S*)-3-(heptyloxy)-4-(hexylcarbamoyl)pyrrolidine-1-carbonyl)benzoyl)-N3,N4-bis((1S,2R)-2-phenylcyclopropyl)pyrrolidine-3,4-dicarboxamide]
351 to 1000 |  | CCCCCCCO[C@H]1CN(C(=O)c2ccc(C(=O)N3C[C@@H](C(=O)N[C@H]4C[C@@H]4c4ccccc4)[C@H](C(=O)N[C@H]4C[C@@H]4c4ccccc4)C3)cc2)C[C@H]1C(=O)NCCCCCC (single isomer, unassigned) [Compound 073, (3S,4S)-1-(4-((3R*,4R*)-3-(heptyloxy)-4-(hexylcarbamoyl)pyrrolidine-1-carbonyl)benzoyl)-N3,N4-bis((1S,2R)-2-phenylcyclopropyl)pyrrolidine-3,4-dicarboxamide]
 | 51 to 350 | O=C(N[C@H]1C[C@@H]1c1ccccc1)[C@@H]1CN(C(=O)c2ccc(C(=O)N3C[C@@H](C(=O)N[C@H]4C[C@@H]4c4cccnc4)[C@H](C(=O)N[C@H]4C[C@@H]4c4cccnc4)C3)cc2)C[C@H]1C(=O)N[C@H]1C[C@@H]1c1ccccc1 (single isomer, unassigned) [Compound 094, (3S,4S)-1-(4-((3S,4S)-3,4-bis(((1S*,2R*)-2-(pyridin-3-yl)cyclopropyl)carbamoyl)pyrrolidine-1-carbonyl)benzoyl)-N3,N4-bis((1S,2R)-2-phenylcyclopropyl) pyrrolidine-3,4-dicarboxamide]
